SMILES strings stand for the structures. “Also recorded” adds a separate entry of the source.

In one test the test system is SH-SY5Y neuroblastoma cell line. Nature of the test: Differentiation of human neuroblastoma cell line SH-SY5Y into neurons: real-time PCR of Hash1 and Notch1. It counts as cell-based. As to conditions: 1 μM, 24 hours; vs 0.1% DMSO vehicle; β-actin internal control. How it is done: SH-SY5Y cells were cultured in 6 well plates at a density of 500000 cells per well and was maintained in DMEM with 10% FBS. After 24 h, the cells were treated with test compounds (1 μM) or 0.1% DMSO vehicle as control. RNA extraction was performed after 24 hours of incubation and gene expression was analyzed by real-time PCR.
The specific primer pairs directed against human Hash1, Notch1 and beta-actin are from the online database qprimerdepot (http://primerdepot.nci.nih.gov/).
The human homolog of Mash1, Hash1, is expressed in neuroblastoma cell lines. […] 2001, 36,132]. Therefore, we tested whether compounds of general Formula (I) and (II) could induce the differentiation of SH-SY5Y neuroblastoma cell line by modulating the gene expression of Hash1 and Notch1.
FIG. 3: Compound A and B induces neuroblastoma differentiation into a neuronal phenotype. Real-time PCR gene expression analysis in SH-SY5Y neuroblastoma cell line. RNA extraction was performed after 24 hours of incubation with compound A and B (1 μM) or with 0.1% DMSO vehicle as control.
With `COc1cc(-c2oc3ccc(CCCCCCCCCCCCCO)cc3c(=O)c2O)ccc1O` [Compound B, 3-hydroxy-2-(4-hydroxy-3-methoxyphenyl)-6-(13-hydroxytridecyl)-4H-chromen-4-one], the Hash1 transcripts result was “inhibit; also recorded: significantly decreased” and the Notch1 transcripts entry is listed as “inhibit; also recorded: significantly decreased”.

As for `COc1cc(-c2oc3ccc(CCCCCCCCCCCCO)cc3c(=O)c2O)ccc1O` [Compound A, 3-hydroxy-2-(4-hydroxy-3-methoxyphenyl)-6-(12-hydroxydodecyl)-4H-chromen-4-one], the Hash1 transcripts entry is recorded as “inhibit; also recorded: significantly decreased” and the Notch1 transcripts entry is “inhibit; also recorded: significantly decreased”.

In the next test the test system is microglial cell line. In words: Real-time PCR gene expression analysis in microglial cell line with or without LPS activation. The settings on record: 1 μM, 3 hours incubation, with or without LPS 0.01 μg/ml; normalized to β-actin. The test is classed as cell-based. How it is done: To evaluate mRNA expression levels, total RNA was extracted using invisorb
RNA extraction kit (Invitek). The concentration was determined by reading the OD at 260 nm. Retro-transcription was performed using Im-Prom-II™ Reverse Transcription System (Promega) with 1 μg of total RNA.
The reaction mixture contained 12.5 μl 2× SYBR Green mastermix (Biorad), 1 μl cDNA, 1 μl of each primer (12.5 μM) and 9.5 μl of H2O. The real-time PCR amplification was controlled by the MyIQ5 system (Biorad). After activation of the enzyme at 94° C. for […], the amplification was done by cycling 40 times between a denaturation step at 94° C. and the annealing step at 54.5° C. Gene expression was analyzed using the provided software and normalized to beta-actin expression.
FIG. 1: Compound B inhibits microglial activation in vitro. Real-time PCR gene expression analysis in microglial cell line. RNA extraction was performed after 3 hours of incubation with compound B (1 μM), with or without LPS activation (0.01 μg/ml).
With `COc1cc(-c2oc3ccc(CCCCCCCCCCCCCO)cc3c(=O)c2O)ccc1O` [Compound B, 3-hydroxy-2-(4-hydroxy-3-methoxyphenyl)-6-(13-hydroxytridecyl)-4H-chromen-4-one], the “Expression of transcripts (iNOS, TNF-α gene expression) in treated microglial cells” value is reported as “significantly decreased”.

A further test concerns microglial cells. In words: TNF-α quantification by ELISA in supernatant of microglial cells. The test is classed as cell-based. The settings on record: test compound at 1 μM; medium collected 48 h after treatment; control 0.1% DMSO. How it is done: (§1) The experiments that were carried out concern the ability of these molecules to inhibit the liberation of nitrites and Tumor Necrosis Factor-alpha (TNF-α) in the activated microglia. NO and TNF-α production are two common parameters related to inflammatory processes.
To quantify the presence of TNF-α in the supernatant of microglial cells, the medium was collected 48 h after treatment as described above. The ELISA 96 well plate was incubated overnight with the capture antibody (0.8 μg/ml, R&D). 10 μl of each sample was diluted with 90 μL of incubation buffer (PBS-BSA 1%, pH 7.2-7.4) and the plate was incubated for 2 h at RT. The plate was washed 3 times and incubated for 2 h with the detection antibody (150 ng/mL, R&D). […] After […] incubation at RT, the reaction was stopped with an equal volume of a 10% solution of sulfuric acid and the OD was measured at 450 nm.
The ability of each test compound to decrease the production of TNF-α is presented as a percent decrease in OD with respect to the absorbance of the control condition i.e. 0.1% DMSO.
Take `COc1cc(-c2oc3ccc(CCCCCCCCCCCO)cc3c(=O)c2O)ccc1O` [drawing 38]: the “% of TNF-α/control” value is reported as 69.2 ± 3.9%.

On to `COc1cc(-c2oc3ccc(CCCCCCCCCCCCCO)cc3c(=O)c2O)ccc1O` [drawing 40], for which the “% of TNF-α/control” value is 77.2 ± 9.4%.

As to `COc1cc(-c2oc3ccc(CCCCCCCCCCCCCCO)cc3c(=O)c2O)ccc1O` [drawing 41], the “% of TNF-α/control” value was determined as 75.4 ± 17.2%.

With `CCCCCCCCCCCCCc1ccc2oc(-c3ccc(O)c(OC)c3)c(O)c(=O)c2c1` [drawing 42], the “% of TNF-α/control” value is given as 91.2 ± 7.9%.

The subject of the next test is NSCs derived neurospheres. In words: Differentiation of NSCs to neurons: real-time PCR of Hes5 and Mash1 in neurospheres (Notch signaling). The test is classed as cell-based, mouse. The settings on record: 1 μM, vs 0.1% DMSO vehicle, β-actin internal control. How it is done:
The NSCs derived neurospheres culture was established from embryonic mouse cortices. Neurospheres were maintained in Neurobasal-A medium supplemented with B27 w/o retinoic acid, 2 mM Glutamine, 20 ng/ml EGF and antibiotics. The neurospheres were dissociated using a non enzymatic dissociation medium (Invitrogen) and the single cell suspension added to a flask with fresh medium. To differentiate the neurospheres into neurons, oligodendrocytes and astrocytes, 3 to 4 days old neurospheres were cultured in poly-ornithine treated 35 mm dishes. Cells were treated with test compounds (1 μM) or 0.1% DMSO vehicle as control in Neurobasal-A medium supplemented with B27 w/o retinoic acid, 2 mM Glutamine, antibiotics, 2 ng/ml EGF and 0.5% of heat inactivated FBS. RNA extraction was performed after 24 hours of incubation and gene expression was analyzed by real-time PCR.
The primer pairs for mouse Mash1, Hes5 and beta-actin were designed with the beacon designer software (premierbiosoft).
Notch signaling controls a wide variety of cell fate decisions, including the differentiation of NSCs during neurogenesis [Artavanis-Tsakonas, S. et al., Science, 1999, 284, 770]. […] Notch activation induces the expression of the downstream effectors Hes1 and Hes5, which down-regulate gene transcription of b-HLH transcription factors such as Mash1. Therefore, we tested whether compounds of general Formula (I) and (II) could modulate Notch signalling in NSCs. […] Inhibition of the Hes5 gene expression in the treated cultures was further correlated with an increase of Mash1 transcripts, a b-HLH factor involved in neuronal specification and differentiation [Ito, H. et al., J Neurosci Res. 2003, 71, 648].
FIG. 2: Compound A and B induces NSCs differentiation into neurons. Real-time PCR gene expression analysis in neurospheres. RNA extraction was performed after […] of incubation with compound A and B (1 μM) or with 0.1% DMSO vehicle as control.
Take `COc1cc(-c2oc3ccc(CCCCCCCCCCCCCO)cc3c(=O)c2O)ccc1O` [Compound B, 3-hydroxy-2-(4-hydroxy-3-methoxyphenyl)-6-(13-hydroxytridecyl)-4H-chromen-4-one]: the Hes5 gene expression result is “decrease” and the Mash1 transcripts result is reported as “increase; also recorded: significantly increased”.

In the case of `COc1cc(-c2oc3ccc(CCCCCCCCCCCCO)cc3c(=O)c2O)ccc1O` [Compound A, 3-hydroxy-2-(4-hydroxy-3-methoxyphenyl)-6-(12-hydroxydodecyl)-4H-chromen-4-one], the Hes5 gene expression entry is given as “decrease” and the Mash1 transcripts result was “increase; also recorded: significantly increased”.

A further test concerns microglial cells. Nature of the test: Nitrite quantification by Griess method in LPS-activated microglial cells. The test is classed as cell-based. As to conditions: test compound at 1 μM; 10 ng/ml LPS; medium collected after 48 h; control 0.1% DMSO; read-out: % of NO/control. How it is done: as §1
To evaluate the nitrite production, microglial cells were cultured in DMEM-F12 medium containing 2% heat-inactivated FBS in 48 well plates at a density of 20000 cells per well. Peripheral wells of the plate were discarded. After 72 h, 400 μL out of 500 μL medium was replaced by 350 μL fresh medium. The cells were treated with each molecule to be tested by adding 50 μL of a 10× solution to obtain a final concentration ranging from 0.1 μM to 1 μM. Each treatment was done in duplicates. 10 ng/ml LPS was added after 1 hour and the medium was collected after 48 h and stored at −20° C. until analysis. To quantify the NO production, nitrites were measured using Griess reactive (sulfanilamide 1%, Sigma; N-(1-Naphthyl)ethylenediamine 0.1%, Sigma; phosphoric acid 2.5%). Briefly, 100 μL of medium was placed into a 96 well plate and 100 μL of Griess reactive was added. After […] incubation at RT in the dark, the OD was measured at 550 nm.
The ability of each test compound to decrease the production of nitrite is presented as a percent decrease in OD with respect to the absorbance of the control condition i.e. 0.1% DMSO.
With `COc1cc(-c2oc3cc(O)c4cc(CCCCCCCCCCCCO)oc4c3c(=O)c2O)ccc1O`, the activity at 1 µM turned out to be 112 ± 8%.

Take `CCCCCCCCCCCCCc1ccc2oc(-c3ccc(O)c(OC)c3)c(O)c(=O)c2c1` [drawing 35]: the activity at 1 µM was 85 ± 0.9%.

As to `O=c1c(O)c(-c2ccc(O)c(O)c2)oc2cc(O)c3cc(CCCCCCCCCCCCO)oc3c12`, the activity at 1 µM amounted to 112 ± 9.2%.

For the compound `COc1ccc(-c2oc3ccc(CCCCCCCCCCCCCO)cc3c(=O)c2O)cc1OC`, the activity at 1 µM is 89 ± 7.6%.

With `COc1cc(-c2oc3cc(O)c(CCCCCCCCCCCCO)c(OC)c3c(=O)c2O)ccc1O`, the activity at 1 µM was 97.6 ± 6.9%.

On to `COc1c(CCCCCCCCCCCCCO)c(O)cc2oc(-c3ccc(O)c(O)c3)c(O)c(=O)c12`, for which the activity at 1 µM is 91.5 ± 2.6%.

Take `COc1cc(-c2oc3ccc(CCCCCCCCCCCCCO)cc3c(=O)c2OC)ccc1O`: the activity at 1 µM turned out to be 95.3 ± 4.8%.

Take `COc1cc(-c2oc3cc(O)c(CCCCCCCCCCCCO)c(O)c3c(=O)c2O)ccc1O`: the activity at 1 µM amounted to 99.6 ± 1.5%.

With `O=c1c(O)c(-c2ccc(O)c(O)c2)oc2ccc(CCCCCCCCCCCCCO)cc12`, the activity at 1 µM was determined as 86.3 ± 4.2%.

Consider `COc1cc(-c2oc3cc(O)c(CCCCCCCCCCCCCO)c(O)c3c(=O)c2O)ccc1O`, for which the activity at 1 µM stood at 109 ± 10.5%.

Take `COc1cc(-c2oc3ccc(CCCCCCCCCCCO)cc3c(=O)c2O)ccc1O` [drawing 16]: the activity at 1 µM was determined as 72 ± 3%.

With `O=c1c(O)c(-c2ccc(O)c(O)c2)oc2ccc(CCCCCCCCCCCCO)cc12`, the activity at 1 µM turned out to be 84.5 ± 5.9%.

On to `COc1c(CCCCCCCCCCCCO)c(O)cc2oc(-c3ccc(O)c(O)c3)c(O)c(=O)c12`, for which the activity at 1 µM was 112 ± 1.7%.

In the case of `COc1cc(-c2oc3cc(O)c(CCCCCCCCCCCCCO)c(OC)c3c(=O)c2O)ccc1O`, the activity at 1 µM amounted to 96.6 ± 4.2%.

Turning to `COc1cc(-c2oc3ccc(CCCCCCCCCCCCO)cc3c(=O)c2O)ccc1O` [drawing 17], the activity at 1 µM is 61.1 ± 3.1%.

Regarding `COc1ccc(-c2oc3ccc(CCCCCCCCCCCCO)cc3c(=O)c2O)cc1OC`, the activity at 1 µM was found to be 87.7 ± 7.7%.

On to `O=c1c(O)c(-c2ccc(O)c(O)c2)oc2cc(O)c(CCCCCCCCCCCCO)c(O)c12`, for which the activity at 1 µM was 81.6 ± 4%.

As for `COc1cc(-c2cc(=O)c3cc(CCCCCCCCCCCCCO)ccc3o2)ccc1O`, the activity at 1 µM came out at 102 ± 3.8%.

Consider `COc1cc(-c2oc3ccc(CCCCCCCCCCCCCO)cc3c(=O)c2O)ccc1O` [drawing 18, 3-hydroxy-2-(4-hydroxy-3-methoxyphenyl)-6-(13-hydroxytridecyl)-4H-chromen-4-one], for which the activity at 1 µM stood at 59.8 ± 2.1%.

Regarding `COc1ccc(-c2oc3ccc(CCCCCCCCCCCCCO)cc3c(=O)c2O)cc1O`, the activity at 1 µM amounted to 103 ± 4%.

For the compound `COc1cc(-c2oc3cc(O)c(CCCCCCCCCCCCO)cc3c(=O)c2O)ccc1O`, the activity at 1 µM came to 90.3 ± 3.9%.

`COc1cc(-c2oc3cc(O)c(CCCCCCCCCCCCCO)cc3c(=O)c2O)ccc1O`: the activity at 1 µM stood at 98.2 ± 1%.

Consider `COc1cc(-c2oc3ccc(CCCCCCCCCCCCCCO)cc3c(=O)c2O)ccc1O` [drawing 19], for which the activity at 1 µM came out at 77.5 ± 3.9%.

Take `O=c1c(O)c(-c2ccc(O)c(O)c2)oc2cc(O)c(CCCCCCCCCCCCCO)c(O)c12`: the activity at 1 µM was 82.4 ± 6.3%.

Values taken from patent US20110144194A1, “CHROMENONE DERIVATIVES USEFUL FOR THE TREATMENT OF NEURODEGENERATIVE DISEASES” (priority 2008, published 2011).
